A short description of series [1]: Toxicity in C3H/HeNk mouse infected with Trypanosoma cruzi K98 bloodstream form assessed as body weight gain at 75 mg/kg/day, po administered via gavage for 30 consecutive days starting from 90 days post infection measured up to 120 days post infection. The format is organism-based. The following applies: in vivo.
In series [2] the test system is Trypanosoma cruzi. The experiment in a line: Antitrypanosomal activity against Trypanosoma cruzi K98 bloodstream form infected in C3H/HeNk mouse assessed as change in QRS morphology at 75 mg/kg/day, po administered via gavage for 30 consecutive days starting from 90 days post infection and measured at 120 days post infection by electrocardiographic analysis (reference value: 25 %). The format is functional.

The subject of series [3] is Trypanosoma cruzi. In words: Antitrypanosomal activity against Trypanosoma cruzi K98 bloodstream form infected in C3H/HeNk mouse assessed as reduction in cardiac tissue inflammation at 30 to 75 mg/kg/day, po administered via gavage for 30 consecutive days starting from 90 days post infection and measured at 180 days post infection by hematoxylin and eosin staining based assay. It counts as functional, organism-based.

In series [4] the test system is Trypanosoma cruzi. In words: Antitrypanosomal activity against Trypanosoma cruzi K98 bloodstream form infected in C3H/HeNk mouse assessed as reduction in parasite burden in skeletal muscle at 30 to 75 mg/kg/day, po administered via gavage for 30 consecutive days starting from 90 days post infection and measured at 180 days post infection by qRT-PCR analysis. It counts as functional, organism-based. For orientation: Quantitative PCR measures a nucleic acid by following its amplification.

Series [5] is described as follows: Toxicity in C3H/HeNk mouse infected with Trypanosoma cruzi K98 bloodstream form assessed as decrease in body weight at 30 mg/kg/day, po administered via gavage for 30 consecutive days starting from 90 days post infection measured at 150 days post infection. The format is organism-based. The following applies: in vivo.
Series [6] concerns Trypanosoma cruzi. In words: Antitrypanosomal activity against Trypanosoma cruzi K98 bloodstream form infected in C3H/HeNk mouse assessed as QRS morphology at 75 mg/kg/day, po administered via gavage for 30 consecutive days starting from 90 days post infection and measured at 170 days post infection by electrocardiographic analysis (reference value: 25 %). It counts as functional.

Another series relates to Vero. In words: Cytotoxicity against African green monkey Vero cells at 0.5 to 20 uM after 72 hrs by propidium iodide staining based flow cytometric analysis. The format is cell-based. The following applies: chlorocebus sabaeus.
Series [7] relates to Trypanosoma cruzi. The experiment in a line: Antitrypanosomal activity against Trypanosoma cruzi K98 bloodstream form infected in C3H/HeNk mouse assessed as effect on RR interval at 30 to 75 mg/kg/day, po administered via gavage for 30 consecutive days starting from 90 days post infection and measured at 120 to 170 days post infection by electrocardiographic analysis. The format is functional, organism-based.

A short description of series [8]: Toxicity in C3H/HeNk mouse infected with Trypanosoma cruzi K98 bloodstream form assessed as decrease in body weight at 15 mg/kg/day, po administered via gavage for 30 consecutive days starting from 90 days post infection measured at 150 days post infection in presence of benznidazole. The following applies: in vivo. It counts as organism-based.
Series [9] in a line: Toxicity in C3H/HeNk mouse infected with Trypanosoma cruzi K98 bloodstream form assessed as decrease in body weight at 75 mg/kg/day, po administered via gavage for 30 consecutive days starting from 90 days post infection measured at 150 days post infection. It counts as organism-based. The following applies: in vivo.
Series [10] deals with Trypanosoma cruzi. In words: Antitrypanosomal activity against Trypanosoma cruzi K98 bloodstream form infected in C3H/HeNk mouse assessed as reduction in skeletal tissue inflammation at 75 mg/kg/day, po administered via gavage for 30 consecutive days starting from 90 days post infection and measured at 180 days post infection by hematoxylin and eosin staining based assay. It counts as functional, organism-based.

A short description of series [11]: Toxicity in C3H/HeNk mouse infected with Trypanosoma cruzi K98 bloodstream form assessed as body weight gain at 30 mg/kg/day, po administered via gavage for 30 consecutive days starting from 90 days post infection measured up to 120 days post infection. It counts as organism-based. As to conditions: in vivo.
The nature of series [12]: Toxicity in C3H/HeNk mouse infected with Trypanosoma cruzi K98 bloodstream form assessed as decrease in body weight at 30 mg/kg/day, po administered via gavage for 30 consecutive days starting from 90 days post infection measured at 150 days post infection in presence of benznidazole. It counts as organism-based. As to conditions: in vivo.
Series [13] deals with Trypanosoma cruzi. In words: Antitrypanosomal activity against Trypanosoma cruzi K98 bloodstream form infected in C3H/HeNk mouse assessed as reduction in parasite burden in blood at 30 to 75 mg/kg/day, po administered via gavage for 30 consecutive days starting from 90 days post infection and measured at 180 days post infection by qRT-PCR analysis. The format is functional, organism-based.

Series [14] deals with Trypanosoma cruzi. In words: Antitrypanosomal activity against Trypanosoma cruzi K98 bloodstream form infected in C3H/HeNk mouse assessed as change in QRS morphology at 30 mg/kg/day, po administered via gavage for 30 consecutive days starting from 90 days post infection and measured at 120 days post infection by electrocardiographic analysis (reference value: 25 %). It counts as functional.

For series [15], the system named is Trypanosoma cruzi. In words: Antitrypanosomal activity against Trypanosoma cruzi K98 bloodstream form infected in C3H/HeNk mouse assessed as effect on heart rate duration at 30 to 75 mg/kg/day, po administered via gavage for 30 consecutive days starting from 90 days post infection and measured at 120 to 170 days post infection by electrocardiographic analysis. It counts as functional, organism-based.

Series [16] deals with Trypanosoma cruzi. In words: Antitrypanosomal activity against Trypanosoma cruzi K98 bloodstream form infected in C3H/HeNk mouse assessed as effect on QT interval at 30 to 75 mg/kg/day, po administered via gavage for 30 consecutive days starting from 90 days post infection and measured at 120 to 170 days post infection by electrocardiographic analysis. The format is functional, organism-based.

Series [17] relates to Trypanosoma cruzi. The experiment in a line: Antitrypanosomal activity against Trypanosoma cruzi K98 bloodstream form infected in C3H/HeNk mouse assessed as reduction in parasite burden in cardiac muscle at 30 to 75 mg/kg/day, po administered via gavage for 30 consecutive days starting from 90 days post infection and measured at 180 days post infection by qRT-PCR analysis. The format is functional, organism-based.

The subject of series [18] is Trypanosoma cruzi. In words: Antitrypanosomal activity against Trypanosoma cruzi K98 bloodstream form infected in C3H/HeNk mouse assessed as effect on heart rate at 30 to 75 mg/kg/day, po administered via gavage for 30 consecutive days starting from 90 days post infection and measured at 120 to 170 days post infection by electrocardiographic analysis. The format is functional, organism-based.

Series [19] relates to Trypanosoma cruzi. The experiment in a line: Antitrypanosomal activity against Trypanosoma cruzi K98 bloodstream form infected in C3H/HeNk mouse assessed as effect on PR interval at 30 to 75 mg/kg/day, po administered via gavage for 30 consecutive days starting from 90 days post infection and measured at 120 to 170 days post infection by electrocardiographic analysis. It counts as functional, organism-based.

The subject of series [20] is Trypanosoma cruzi. In words: Antitrypanosomal activity against Trypanosoma cruzi K98 bloodstream form infected in C3H/HeNk mouse assessed as change in QRS morphology at 30 mg/kg/day, po administered via gavage for 30 consecutive days starting from 90 days post infection and measured at 170 days post infection by electrocardiographic analysis (reference value: 25 %). It counts as functional.

In series [21] the test system is Trypanosoma cruzi. The experiment in a line: Antitrypanosomal activity against Trypanosoma cruzi K98 bloodstream form infected in C3H/HeNk mouse assessed as adipocytes replacement in skeletal muscle by measuring number of adipocyte at 30 mg/kg/day, po administered via gavage for 30 consecutive days starting from 90 days post infection and measured at 180 days post infection in presence of benznidazole by hematoxylin and eosin staining based …. It counts as functional.

For series [22], the system named is Trypanosoma cruzi. The experiment in a line: Antitrypanosomal activity against Trypanosoma cruzi K98 bloodstream form infected in C3H/HeNk mouse assessed as effect on heart rate duration at 30 mg/kg/day, po administered via gavage for 30 consecutive days starting from 90 days post infection and measured at 120 to 170 days post infection in presence of benznidazole by electrocardiographic analysis. It counts as functional, organism-based.

In series [23] the test system is Trypanosoma cruzi. The experiment in a line: Antitrypanosomal activity against Trypanosoma cruzi K98 bloodstream form infected in C3H/HeNk mouse assessed as reduction in parasite burden in cardiac muscle at 30 mg/kg/day, po administered via gavage for 30 consecutive days starting from 90 days post infection and measured at 180 days post infection in presence of benznidazole by qRT-PCR analysis. It counts as functional, organism-based.

Series [24] relates to Trypanosoma cruzi. In words: Antitrypanosomal activity against Trypanosoma cruzi K98 bloodstream form infected in C3H/HeNk mouse assessed as effect on heart rate at 30 mg/kg/day, po administered via gavage for 30 consecutive days starting from 90 days post infection and measured at 120 to 170 days post infection in presence of benznidazole by electrocardiographic analysis. The format is functional, organism-based.

The subject of series [25] is Trypanosoma cruzi. In words: Antitrypanosomal activity against Trypanosoma cruzi K98 bloodstream form infected in C3H/HeNk mouse assessed as effect on RR interval at 30 mg/kg/day, po administered via gavage for 30 consecutive days starting from 90 days post infection and measured at 120 to 170 days post infection in presence of benznidazole by electrocardiographic analysis. The format is functional, organism-based.

The subject of series [26] is Trypanosoma cruzi. In words: Antitrypanosomal activity against Trypanosoma cruzi K98 bloodstream form infected in C3H/HeNk mouse assessed as change in QRS morphology at 30 mg/kg/day, po administered via gavage for 30 consecutive days starting from 90 days post infection and measured at 120 days post infection in presence of benznidazole by electrocardiographic analysis (reference value: 25 %). It counts as functional.

Series [27] deals with Trypanosoma cruzi. In words: Antitrypanosomal activity against Trypanosoma cruzi K98 bloodstream form infected in C3H/HeNk mouse assessed as change in QRS morphology at 30 mg/kg/day, po administered via gavage for 30 consecutive days starting from 90 days post infection and measured at 170 days post infection in presence of benznidazole by electrocardiographic analysis (reference value: 25 %). The format is functional.

Series [28] can be described thus: Toxicity in C3H/HeNk mouse infected with Trypanosoma cruzi K98 bloodstream form assessed as body weight gain at 30 mg/kg/day, po administered via gavage for 30 consecutive days starting from 90 days post infection measured up to 120 days post infection in presence of benznidazole. As to conditions: in vivo. It counts as organism-based.
Series [29] deals with Trypanosoma cruzi. In words: Antitrypanosomal activity against Trypanosoma cruzi K98 bloodstream form infected in C3H/HeNk mouse assessed as effect on PR interval at 30 mg/kg/day, po administered via gavage for 30 consecutive days starting from 90 days post infection and measured at 120 to 170 days post infection in presence of benznidazole by electrocardiographic analysis. The format is functional, organism-based.

In series [30] the test system is Trypanosoma cruzi. The experiment in a line: Antitrypanosomal activity against Trypanosoma cruzi K98 bloodstream form infected in C3H/HeNk mouse assessed as reduction in parasite burden in blood at 30 mg/kg/day, po administered via gavage for 30 consecutive days starting from 90 days post infection and measured at 180 days post infection in presence of benznidazole by qRT-PCR analysis. The format is functional, organism-based.

For series [31], the system named is Trypanosoma cruzi. The experiment in a line: Antitrypanosomal activity against Trypanosoma cruzi K98 bloodstream form infected in C3H/HeNk mouse assessed as reduction in parasite burden in skeletal muscle at 30 mg/kg/day, po administered via gavage for 30 consecutive days starting from 90 days post infection and measured at 180 days post infection in presence of benznidazole by qRT-PCR analysis. It counts as functional, organism-based.

The subject of series [32] is Trypanosoma cruzi. In words: Antitrypanosomal activity against Trypanosoma cruzi K98 bloodstream form infected in C3H/HeNk mouse assessed as reduction in cardiac tissue inflammation at 30 mg/kg/day, po administered via gavage for 30 consecutive days starting from 90 days post infection and measured at 180 days post infection in presence of benznidazole by hematoxylin and eosin staining based assay. It counts as functional, organism-based.

Series [33] relates to Trypanosoma cruzi. The experiment in a line: Antitrypanosomal activity against Trypanosoma cruzi K98 bloodstream form infected in C3H/HeNk mouse assessed as effect on QT interval at 30 mg/kg/day, po administered via gavage for 30 consecutive days starting from 90 days post infection and measured at 120 to 170 days post infection in presence of benznidazole by electrocardiographic analysis. It counts as functional, organism-based.

SMILES strings stand for the structures. Activity calls are given as the source filed them. No cut-off for these calls is given here.

Take `O=C(Cn1ccnc1[N+](=O)[O-])NCc1ccccc1` [BENZNIDAZOLE]: the Activity entry is on record as “Non-Toxic” in series [1]; 0% with Trypanosoma cruzi [2]; “Non-Toxic” in [5]; 80% in the series on Trypanosoma cruzi [6]; “Non-Toxic” in the series on Vero; “Non-Toxic” in series [8]. For the same compound, the Activity result was “Toxic” in series [9]; “Non-Toxic” in series [11]; “Non-Toxic” in series [12]; 0% in the series with Trypanosoma cruzi [14]; 0% in the series with Trypanosoma cruzi [20]. In addition, the result in the series with Trypanosoma cruzi [3], in the series on Trypanosoma cruzi [4], in the series on Trypanosoma cruzi [13] and in the series with Trypanosoma cruzi [17] was Active. Also, the result with Trypanosoma cruzi [7], with Trypanosoma cruzi [10], with Trypanosoma cruzi [15], in the series on Trypanosoma cruzi [16], in the series with Trypanosoma cruzi [18] and in the series on Trypanosoma cruzi [19] was inactive.

Consider `CC(C)/N=c1\cc2n(-c3ccc(Cl)cc3)c3ccccc3nc-2cc1Nc1ccc(Cl)cc1` [CLOFAZIMINE], for which the Activity is 1 - 3 with Trypanosoma cruzi [21]; “Non-Toxic” with Vero; 0% with Trypanosoma cruzi [26]; 0% with Trypanosoma cruzi [27]; “Non-Toxic” in series [28]. Besides, the result with Trypanosoma cruzi [22], in the series with Trypanosoma cruzi [23], in the series with Trypanosoma cruzi [24], in the series with Trypanosoma cruzi [25], with Trypanosoma cruzi [29] and with Trypanosoma cruzi [32] was inactive. Also, the result in the series with Trypanosoma cruzi [33] was inactive. Further, the outcome in the series on Trypanosoma cruzi [30] and with Trypanosoma cruzi [31] was Active.
